Experimental data reported in PMC7011873, “LC-MS–MS and GC-MS analyses of biologically active extracts and fractions from Tunisian Juniperus phoenice leaves” (Pharmaceutical Biology, 2016).

Tests used:
[1] = DPPH radical-scavenging effect assay; conditions: 30 min incubation at room temperature, absorbance at 517 nm
Description: DPPH (1,1-diphenyl-2-picrylhydrazyl) radical-scavenging effect was evaluated following the procedure described in a previous study (Feki et al. [2005]). Various concentrations of extracts and fractions (5 μL) dissolved in methanol were added to 5 mL of a 0.004% methanol solution of DPPH. After a 30 min incubation period at room temperature, the absorbance was read against a blank at 517 nm. Inhibition of free radical, DPPH, in percent (I%) was calculated as follows: I% = (Ablank-Asample/Ablank)×100 where Ablank is the absorbance of the control reaction (containing all reagents except the studied sample) and Asample is the absorbance of the studied sample. Extract concentration providing 50% inhibition (IC50) was calculated from the graph plotted of inhibition percentage against extract concentration. The synthetic antioxidant reagents BHT and vitamin E were used as positive control and all tests were carried out in triplicate.

[2] = target: T1, porcine pancreatic α-amylase (PPA) (Sus scrofa, UniProt P00690); test: α-Amylase inhibition assay by CNPG3 method; format: biochemical
T1 construct: purchased Sigma-Aldrich (St. Louis, MO)
T1 sequence (P00690 16-511): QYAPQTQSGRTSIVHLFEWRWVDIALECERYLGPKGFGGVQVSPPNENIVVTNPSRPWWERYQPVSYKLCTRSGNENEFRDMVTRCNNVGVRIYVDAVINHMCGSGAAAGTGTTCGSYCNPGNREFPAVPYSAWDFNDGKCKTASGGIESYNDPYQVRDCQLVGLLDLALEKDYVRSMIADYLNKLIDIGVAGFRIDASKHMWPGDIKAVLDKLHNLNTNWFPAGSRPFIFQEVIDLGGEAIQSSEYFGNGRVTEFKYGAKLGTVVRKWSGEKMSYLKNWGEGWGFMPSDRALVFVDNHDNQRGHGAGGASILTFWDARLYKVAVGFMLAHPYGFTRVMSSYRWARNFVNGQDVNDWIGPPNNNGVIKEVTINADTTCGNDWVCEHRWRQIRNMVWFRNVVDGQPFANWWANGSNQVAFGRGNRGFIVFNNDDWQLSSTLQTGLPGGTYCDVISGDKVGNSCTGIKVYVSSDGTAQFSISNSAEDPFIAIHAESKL
Description: The studied sample was dissolved in DMSO to give concentrations of 50, 100, and 200 mg/mL. The enzyme solution was prepared by mixing α-amylase in 100 mL of 40 mM phosphate buffer, pH 6.9. The assays were measured by mixing 80 mL of the studied sample, 20 mL of α-amylase solution, and 1 mL of 2-chloro-4-nitrophenol-α-D-maltotrioside (CNPG3). The mixture was incubated at 37 °C for 5 min. The absorbance was measured at 405 nm spectrophotometrically (Jenway 6405 UV/Visible, Staffordshire, UK). […] Percentage inhibition was calculated by the following expression and all tests were carried out in triplicate: PI = [(AbsorbanceControl-AbsorbanceTest)/AbsorbanceControl] × 100

[3] = test system: α-glucosidase; parameters: method as in Kim et al. ([2000]); conditions: ref Kim et al. ([2000]); cited from earlier work

IC50 [2] [µM] | SMILES | DPPH IC50 [1] [µg/mL] | inhibitory activity against α-glucosidase [3]
37.9 | O=c1cc(-c2ccc(O)c(-c3c(O)cc(O)c4c(=O)cc(-c5ccc(O)cc5)oc34)c2)oc2cc(O)cc(O)c12 [Amentoflavone] | 14.1 ± 0.4 | relatively important inhibitory activity
 | Cc1cc(C(C)(C)C)c(O)c(C(C)(C)C)c1 [BHT, butylate hydroxytoluene, reference compound] | 18.1 ± 0.2 | 
